This is an account of results in US20090263489A1, “ANALGESIC AND ANTI-INFLAMMATORY COMPOSITIONS AND METHODS FOR REDUCING, PREVENTING OR TREATING PAIN AND INFLAMMATION” (Warsaw Orthopedic, Inc., priority 2008, published 2009).

“Also recorded” adds a separate entry of the source. Counter-ions that a name gives are not always drawn. Bounds are passed on as bounds.

Data set [1] deals with chronic constriction injury (CCI) rats. Put plainly: Mechanical allodynia (von Frey monofilaments, 50% paw withdrawal threshold) in chronic constriction injury model. The data set is classed as in vivo, Wistar rats. The note with it: days 8 and 15, vs control (PBS). On the procedure: (§1) The behavioral animal model of chronic constriction injury (“CCI”) was chosen to evaluate the efficacy of an analgesic and anti-inflammatory agent as a pain and inflammation treatment. This model may mimic pain associated with sciatica in humans.
(§2) Fifty-Six male Wistar rats (Charles River Laboratories, Wilmington, Mass.) weighing 300±26 g the day of surgery (Day 1) were used in this study. All experiments were conducted in accordance with the International Association for the Study of Pain guidelines and approved by the Institutional Animal Care and Use Committee at SRI International, Inc (Menlo Park, Calif.). CCI was induced according to the method of Bennett and Xie. Briefly, each animal was anesthetized by intraperitoneal (IP) injection of sodium pentobarbital at a dose of 60 mg/kg. The animal's common sciatic nerve was exposed and freed from adherent tissue at mid-thigh by separating the biceps femoris muscles by blunt dissection. Four loose ligatures were placed 1 mm apart, using chromic gut suture (4-0 absorbable suture; Jorgensen Laboratories, Inc., Loveland, Colo.).
(§3) Seven animals were randomly assigned to each treatment group.
Mechanical allodynia was measured using von Frey monofilaments (Stoelting, Wood Dale, Ill.) with varying stiffness (2.0-15.0 g) on Days −1, 8, and 15 as described previously (see FIG. 4). Animals were placed on a perforated metallic platform and allowed to habituate to their surroundings for a minimum of 15 minutes before testing. The 50% paw withdrawal threshold response was determined by a sequential increasing and/or decreasing of the stimulus strength (the “up-down method” of Dixon). Each filament was applied with enough pressure to cause a buckling effect. Absence of a paw lifting/withdrawal response after 5 seconds prompted the use of the filament of next higher weight. Paw withdrawal indicating a positive response prompted the use of a weaker filament. After the initial response (i.e., paw withdrawal), the testing continued for four additional measurements and was used to calculate the response threshold. Four consecutive positive responses received a score of 0.25 g, and five consecutive negative responses (i.e., no paw withdrawal) received a score of 15 g. The 50% paw withdrawal threshold was calculated using the formula: 10(Xf+kd)/10,000, where Xf is the final von Frey filament used (log units), k is a value that analyzes the response pattern (taken from the table published by Chaplan et al.), and d is the mean difference between stimuli (log units). The mean and standard error of the mean (SEM) were determined for each treatment group.

Data set [2] shares this test system. Put plainly: Thermal paw withdrawal latency (Hargreaves test) in chronic constriction injury model. The data set is classed as in vivo, Wistar rats. The note with it: days 7 and 14, vs control (PBS). As for the experimental part:
as §1, §2, §3
Withdrawal latencies to a noxious thermal stimulus were measured according to the Hargreaves test using a plantar analgesia instrument (Stoelting, Wood Dale, Ill.) on Days −2, 7, and 14 (see FIG. 3). The radiant infrared heat source stimulus intensity was set to IR50 and the cut-off time was set at 15 seconds. Rats were placed on a glass platform and allowed to habituate to the testing chambers for a minimum of 15 minutes prior to each testing session. The thermal stimulus was applied to the plantar surface of the paw. Thermal thresholds were defined as the latency in seconds at the first pain behavior, which includes paw withdrawal, flinching, biting and/or licking of the stimulated paw. The readings for all animals were averaged and the mean and standard error of the mean (SEM) were determined for each treatment group.

Data set [3] can be described thus: Solubility noted for preparing the formulations.
Where [4] appears, read: 2 mg/kg/day IP daily, listed as sulindac.

In general, solubility refers to the concentration that dissolves in the medium under given conditions. Low readings indicate a poorly soluble substance, high ones a readily soluble substance. Regarding `N=C(N)NCCSSCCNC(=N)N` [GED, guanidinoethyldisulfide], the entries for the “mechanical thresholds (von Frey): reducing pain and/or inflammation” value in data set [1] (1 mg/kg/day IP daily) and in data set [1] (3 mg/kg/day IP daily) were “effective at reducing pain and/or inflammation for 15 days; also recorded: particularly effective at reducing pain and/or inflammation” and “effective at reducing pain and/or inflammation for 15 days”, respectively. In addition, the “thermal paw withdrawal latency: reducing pain and/or inflammation” value is listed as “effective at reducing pain and/or inflammation for 14 days” in data set [2] (1 mg/kg/day IP daily) and “effective at reducing pain and/or inflammation for 14 days; also recorded: particularly effective at reducing pain and/or inflammation” in data set [2] (3 mg/kg/day IP daily). The “solubility in organic solvents” value in data set [3] (printed 'irganic solvents') is listed as “insoluble”. This compound returned a solubility in data set [3] (water) of at most 5 mg/mL.
Consider `CC[C@H](C)C(=O)O[C@H]1C[C@@H](C)C=C2C=C[C@H](C)[C@H](CC[C@@H]3C[C@@H](O)CC(=O)O3)[C@H]21` [Lovastatin, lovastatin], for which the “mechanical thresholds (von Frey): reducing pain and/or inflammation” value is “effective at reducing pain and/or inflammation for 15 days” in data set [1] (0.3 mg/kg/day IP daily); “effective at reducing pain and/or inflammation for 15 days” in data set [1] (3 mg/kg/day IP daily); “particularly effective at reducing pain and/or inflammation” in data set [1] (3 mg/kg/day IP daily, listed as lovastatin). In addition, the “thermal paw withdrawal latency: reducing pain and/or inflammation” value is “effective at reducing pain and/or inflammation for 14 days” in data set [2] (0.3 mg/kg/day IP daily) and “effective at reducing pain and/or inflammation for 14 days; also recorded: particularly effective at reducing pain and/or inflammation” in data set [2] (3 mg/kg/day IP daily). In addition, the “Soluble in DMSO” value in data set [3] (DMSO) was “up to 40 mg/kg”.
Regarding `CC1=C(CC(=O)O)c2cc(F)ccc2C1=Cc1ccc([S+](C)[O-])cc1` (centres unmarked) [Sulindac, 2-[6-fluoro-2-methyl-3-[(4-methylsulfinylphenyl)-methylidene]inden-1-yl]-acetic acid], the “mechanical thresholds (von Frey): reducing pain and/or inflammation” value is on record as “particularly effective at reducing pain and/or inflammation” in data set [1] (2 mg/kg/day IP daily) and “effective at reducing pain and/or inflammation for 15 days” in data set [1] (setting [4]). Further, the entries for the “thermal paw withdrawal latency: reducing pain and/or inflammation” value in data set [2] (2 mg/kg/day IP daily) and in data set [2] (setting [4]) were “particularly effective at reducing pain and/or inflammation” and “effective at reducing pain and/or inflammation for 14 days”, respectively.
In turn, `COc1cccc([C@]2(O)CCCC[C@H]2CN(C)C)c1` (racemic) [Tramadol, (±)cis-2-[(dimethylamino)methyl]-1-(3-methoxyphenyl)cyclohexanol hydrochloride] displayed a solubility in data set [3] (saline, saline or isotonic) of at least 25 mg/mL.
